From patent US20030228395A1, “Isotropic transparent structured fluids” (Archer-Daniels Midland Company, priority 2002, published 2003) come the findings set out here.

On series [1], the source says: FIG. 6. […] The values assign the maximum amount of vitamin E that can be solubilized as a wt/wt percentage of the total micro-emulsion weight.
The maximum amount of vitamin E solubilized was compared among the different forms of vitamin E along line 6:4 in the five-component system of D-limonene/ethanol (1/1) as the oil phase, TWEEN 60 as surfactant, and water/1,2-propanediol (1/1) as the aqueous phase, in order to obtain insight into the difference in their interfacial behavior (FIG. 6).

Series [2] can be described thus: Effect of pH on stability of micro-emulsions. The series is classed as physicochemical. The settings on record: maximum tocopherol acetate, line 6.4 of Example 1, dilutions 50%, 60%, 70%, 80%; buffer pH 3.4, 3.8, 5.4, 7.0, 8.6 replacing water. From the text: A buffer of different pH values (3.4, 3.8, 5.4, 7.0 and 8.6) replaced the water in the aqueous phase.

Consider `Cc1c(C)c2c(c(C)c1O)CC[C@@](C)(CCC[C@H](C)CCC[C@H](C)CCCC(C)C)O2` [alpha-tocopherol], for which, in series [1], the “solubilization capacity along the dilution line” value is given as “two main dramatic decreases in solubilization, after which a stabilization in solubilization is maintained” and the “solubilization capacity when D-limonene was replaced by triacetin” value was “increased along all of the dilution line”.

Take `CC(=O)Oc1c(C)c(C)c2c(c1C)CCC(C)(CCC[C@H](C)CCC[C@H](C)CCCC(C)C)O2` (stereo partly drawn) [Tocopherol Acetate, tocopherol acetate]: the “stability of micro-emulsions at different pH” value in series [2] is listed as “stable for over two months”.
